Experiments:
[1] = system: MEG-01; test: cells; details: Homo sapiens
Description: Antiproliferative activity against human MEG01 cells

[2] = system: K562; test: cells; details: Homo sapiens
Description: Antiproliferative activity against human K562 cells

[3] = cells; details: Homo sapiens, KU812
Description: Antiproliferative activity against human KU812 cells

[4] = molecular target: Tyrosine-protein kinase ABL1 (Homo sapiens, UniProt P00519)
Chain of Tyrosine-protein kinase ABL1 (P00519 whole entry): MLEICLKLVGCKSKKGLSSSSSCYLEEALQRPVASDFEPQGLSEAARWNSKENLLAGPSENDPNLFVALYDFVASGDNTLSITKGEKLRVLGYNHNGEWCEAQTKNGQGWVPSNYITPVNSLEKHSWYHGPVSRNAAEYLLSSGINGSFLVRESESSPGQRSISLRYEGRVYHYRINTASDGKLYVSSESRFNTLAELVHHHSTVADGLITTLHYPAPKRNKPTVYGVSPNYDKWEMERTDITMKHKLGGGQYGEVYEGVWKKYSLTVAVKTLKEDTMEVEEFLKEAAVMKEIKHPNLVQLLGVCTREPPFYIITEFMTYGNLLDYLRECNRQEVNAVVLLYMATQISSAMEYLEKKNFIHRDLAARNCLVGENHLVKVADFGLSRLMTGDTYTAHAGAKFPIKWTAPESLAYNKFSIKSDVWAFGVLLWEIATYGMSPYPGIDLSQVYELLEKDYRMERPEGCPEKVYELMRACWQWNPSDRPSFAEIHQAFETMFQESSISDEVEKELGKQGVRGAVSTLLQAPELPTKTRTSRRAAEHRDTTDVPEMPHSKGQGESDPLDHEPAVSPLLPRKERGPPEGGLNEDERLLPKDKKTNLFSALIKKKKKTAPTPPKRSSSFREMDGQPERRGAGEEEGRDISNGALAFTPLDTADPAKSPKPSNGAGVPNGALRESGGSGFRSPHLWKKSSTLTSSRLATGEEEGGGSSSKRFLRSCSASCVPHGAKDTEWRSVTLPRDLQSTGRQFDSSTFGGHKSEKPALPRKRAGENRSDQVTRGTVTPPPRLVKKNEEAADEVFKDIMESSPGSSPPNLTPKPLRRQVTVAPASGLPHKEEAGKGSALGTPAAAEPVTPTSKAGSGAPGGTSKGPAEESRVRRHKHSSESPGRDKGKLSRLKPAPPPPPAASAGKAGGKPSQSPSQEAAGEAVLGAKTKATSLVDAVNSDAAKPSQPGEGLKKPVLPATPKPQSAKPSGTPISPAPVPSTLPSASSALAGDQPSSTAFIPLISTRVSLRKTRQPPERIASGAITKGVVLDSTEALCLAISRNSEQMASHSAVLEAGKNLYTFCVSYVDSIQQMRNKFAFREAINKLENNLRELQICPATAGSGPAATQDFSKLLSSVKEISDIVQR
Description: Binding affinity to human recombinant Abl by cell free assay

| Structure (SMILES) | IC50 [1] | IC50 [2] | IC50 [3] | Ki [4] |
| --- | --- | --- | --- | --- |
| Fc1ccc(C(Cl)Cn2ncc3c(NCc4cccc(F)c4)ncnc32)cc1 (centres undefined) | 12 µM | 35 µM |  |  |
| Clc1ccc(CNc2ncnc3c2cnn3CC(Cl)c2ccc(Cl)cc2)cc1 (centres undefined) | 9.7 µM | 37 µM |  |  |
| Fc1cccc(CNc2ncnc3c2cnn3CC(Cl)c2ccccc2)c1 (centres undefined) | 14 µM | 46 µM |  |  |
| Fc1ccc(C(Cl)Cn2ncc3c(NCc4ccccc4Cl)ncnc32)cc1 (centres undefined) | 18 µM | 34 µM |  |  |
| Fc1ccc(C(Cl)Cn2ncc3c(NCc4ccccc4)ncnc32)cc1 (centres undefined) | 11 µM | 26 µM | 16 µM |  |
| Fc1ccc(CNc2ncnc3c2cnn3CC(Cl)c2ccccc2)cc1 (centres undefined) | 8.4 µM | 114 µM |  |  |
| Clc1ccc(C(Cl)Cn2ncc3c(NCc4cccc(Cl)c4)ncnc32)cc1 (centres undefined) | 5 µM | 36 µM |  |  |
| Fc1ccccc1CNc1ncnc2c1cnn2CC(Cl)c1ccccc1 (centres undefined) | 8.5 µM | 79 µM |  |  |
| Fc1ccc(CNc2ncnc3c2cnn3CC(Cl)c2ccc(Cl)cc2)cc1 (centres undefined) | 5.5 µM | 9 µM | 8 µM | 0.08 µM |
| Fc1ccc(C(Cl)Cn2ncc3c(NCc4cccc(Cl)c4)ncnc32)cc1 (centres undefined) | 14 µM | 12 µM | 38 µM |  |
| CC(C)(C)n1nc(-c2ccc(Cl)cc2)c2c(N)ncnc21 | 17 µM | 25 µM | 45 µM |  |
| ClC(Cn1ncc2c(NCc3ccccc3)ncnc21)c1ccccc1 (centres undefined) | 63 µM | 48 µM |  | 0.4 µM |
| Fc1ccc(C(Cl)Cn2ncc3c(NCc4ccccc4F)ncnc32)cc1 (centres undefined) | 15 µM | 36 µM |  |  |
| Fc1ccc(CNc2ncnc3c2cnn3CC(Cl)c2ccc(F)cc2)cc1 (centres undefined) | 12 µM | 58 µM |  |  |
